Common to all, as to format: in vivo
Experiment [1] concerns Phakopsora pachyrhizi. Briefly: Asian soybean rust (PHAKPA), disease control on soybean seedlings. Particulars: High volume application at 25 ppm. Here is the method: Technical grades of materials were dissolved in acetone, which were then mixed with nine volumes of water containing 0.011% Tween 20. The fungicide solutions were applied onto soybean seedlings using an automated booth sprayer to run-off. All sprayed plants were allowed to air dry prior to further handling.
Soybean plants (variety Williams 82) were grown in soil-less Metro mix, with one plant per pot. Two week old seedlings were used for testing. Plants were inoculated either 3 days prior to or 1 day after fungicide treatments. Plants were incubated for 24 h in a dark dew room at 22° C. and 100% relative humidity then transferred to a growth room at 23° C. for disease to develop. Disease severity was assessed on the sprayed leaves.

For experiment [2], the system named is Puccinia triticina. Briefly: Wheat brown rust (PUCCRT), disease control on wheat seedlings. The settings on record: for pest or weed control at 121.5 g/ha: low volume application at 121.5 g/H; for pest or weed control at 100 ppm: high volume application at 100 ppm. In short, it runs like this: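 Compounds in acetone, diluted with nine volumes of water containing 110 ppm Triton X-100, sprayed to run-off on first-leaf Yuma wheat seedlings; track-spray tests used EC formulations with 0.1% Trycol 5941. Puccinia triticina spores applied before or after treatment. Overnight dark dew room at 22° C, 100% humidity, then greenhouse at 24° C.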

In experiment [3] the test system is Zymoseptoria tritici. Briefly: Leaf blotch of wheat (SEPTTR), disease control on wheat seedlings. Particulars: for pest or weed control at 121.5 g/ha: low volume application at 121.5 g/H; for pest or weed control at 100 ppm: high volume application at 100 ppm. In short, it runs like this:
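Yuma wheat seedlings with the first leaf fully emerged were sprayed to run-off with compound in acetone plus nine volumes of water containing 110 ppm Triton X-100; track-spray tests used EC formulations with 0.1% Trycol 5941. Z. tritici inoculation came before or after treatment, followed by 100% RH dew periods and a 20 °C greenhouse. Percent control was calculated from severity versus untreated plants.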

Setting [4] is: 24 h, 1 Day Protectant, read-out: PHAKPA 1DP disease control rating.
Setting [5] is: 72 h, 3 Day Curative, read-out: PHAKPA 3DC disease control rating.
Where [6] appears, read: 24 h, 1 Day Protectant, wheat brown rust, read-out: PUCCRT 1DP disease control, LV activity.
Setting [7] is: 72 h, 3 Day Curative, wheat brown rust, read-out: PUCCRT 3DC disease control, LV activity.
Where [8] appears, read: 24 h, 1 Day Protectant, wheat leaf blotch, read-out: SEPTTR 1DP disease control, LV activity.
Where [9] appears, read: 72 h, 3 Day Curative, wheat leaf blotch, read-out: SEPTTR 3DC disease control, LV activity.
Setting [10] is: 24 h, 1 Day Protectant, read-out: PUCCRT disease control, 1DP, LV activity.
[11] abbreviates: 72 h, 3 Day Curative, read-out: PUCCRT disease control, 3DC, LV activity.
[12] abbreviates: 24 h, 1 Day Protectant, read-out: SEPTTR disease control, 1DP, LV activity.
The mark [13] stands for this setting: 72 h, 3 Day Curative, read-out: SEPTTR disease control, 3DC, LV activity.

Like-named read-outs stand apart in the source and are kept apart here.

This is an account of results in patent publication US20180186742A1, “PICOLINAMIDES AS FUNGICIDES” (Dow AgroSciences LLC, priority 2017, published 2018).

`COc1ccnc(C(=O)N[C@@H](C)C(=O)O[C@@H](C)[C@@H](c2ccc(F)cc2F)C(C)C)c1OC(C)=O` [Compound 368]: the pest or weed control at 25 ppm in experiment [1] (setting [4]) and in experiment [1] (setting [5]) was under 80% throughout. The pest or weed control at 121.5 g/ha in experiment [2] (setting [6]) is under 80%; in experiment [2] (setting [7]), under 0%; in experiment [3] (setting [8]) it was under 80%; in experiment [3] (setting [9]), under 80%.

On to `COc1cc(F)ccc1[C@@H](C1CCCC1)[C@H](C)OC(=O)[C@H](C)NC(=O)c1nccc(OC)c1OC(C)=O` [Compound 224], for which the pest or weed control at 25 ppm in experiment [1] (setting [4]) is under 80%; in experiment [1] (setting [5]) it was under 0%. Further, the pest or weed control at 121.5 g/ha is under 80% in experiment [2] (setting [10]), under 80% in experiment [2] (setting [11]), under 80% in experiment [3] (setting [12]) and under 0% in experiment [3] (setting [13]).

Regarding `COc1ccnc(C(=O)N[C@@H](C)C(=O)O[C@@H](C)[C@H](c2ccc(C)c(F)c2)C(C)C)c1OC(C)=O` [Compound 243], the pest or weed control at 25 ppm in experiment [1] (setting [4]) was over 80%; in experiment [1] (setting [5]) it was under 80%. The pest or weed control at 121.5 g/ha was over 80% in experiment [2] (setting [10]), under 80% in experiment [2] (setting [11]), under 0% in experiment [3] (setting [12]) and under 80% in experiment [3] (setting [13]).

As for `COc1ccnc(C(=O)N[C@@H](C)C(=O)O[C@@H](C)[C@@H](c2ccc(F)cc2C)C2CCC2)c1OC(C)=O` [Compound 183], the pest or weed control at 25 ppm in experiment [1] (setting [4]) and in experiment [1] (setting [5]) was under 80% each time. In addition, the pest or weed control at 121.5 g/ha in experiment [2] (setting [10]) was under 80%; in experiment [2] (setting [11]), under 80%; in experiment [3] (setting [12]) it was under 80%; in experiment [3] (setting [13]), over 80%.

For `COc1ccnc(C(=O)N[C@@H](C)C(=O)O[C@@H](C)[C@@H](c2ccc(C)cc2F)C(C)C)c1OC(C)=O` [Compound 369], the pest or weed control at 25 ppm in experiment [1] (setting [4]) and in experiment [1] (setting [5]) was under 80% throughout. Also, the pest or weed control at 121.5 g/ha in experiment [2] (setting [6]) was over 80%; in experiment [2] (setting [7]) it was under 80%; in experiment [3] (setting [8]), under 80%; in experiment [3] (setting [9]) it was under 80%.

As for `COc1ccnc(C(=O)N[C@@H](C)C(=O)O[C@@H](C)[C@H](c2ccc(C)cc2C)C(C)C)c1OC(C)=O` [Compound 362], the pest or weed control at 25 ppm in experiment [1] (setting [4]) and in experiment [1] (setting [5]) was over 80% throughout. Moreover, the pest or weed control at 121.5 g/ha in experiment [2] (setting [10]), in experiment [2] (setting [11]), in experiment [3] (setting [12]) and in experiment [3] (setting [13]) was over 80% throughout.

`CCC(C)[C@H](c1ccc(C)cc1C)[C@H](C)OC(=O)[C@H](C)NC(=O)c1c(O)c(OC)cc[n+]1[O-]` (stereo partly shown) [Compound 213]: the pest or weed control at 25 ppm in experiment [1] (setting [4]) and in experiment [1] (setting [5]) was under 0% in each case. Besides, the pest or weed control at 121.5 g/ha in experiment [2] (setting [10]) is under 80%; in experiment [2] (setting [11]), under 0%; in experiment [3] (setting [12]) it was under 80%; in experiment [3] (setting [13]) it was under 80%.

On to `COc1ccnc(C(=O)N[C@@H](C)C(=O)O[C@@H](C)[C@H](c2ccc(Cl)cc2)C(C)C)c1OC(C)=O` [Compound 242], for which the values for the pest or weed control at 25 ppm in experiment [1] (setting [4]) and in experiment [1] (setting [5]) were over 80% and under 80%, respectively. Besides, the pest or weed control at 121.5 g/ha in experiment [2] (setting [10]), in experiment [2] (setting [11]), in experiment [3] (setting [12]) and in experiment [3] (setting [13]) was over 80% each time.

As for `COc1ccnc(C(=O)N[C@@H](C)C(=O)O[C@@H](C)[C@H](c2ccc(F)cc2C)C(C)C)c1OCOC(C)=O` [Compound 215], the pest or weed control at 25 ppm in experiment [1] (setting [4]) and in experiment [1] (setting [5]) was over 80% each time. Further, the pest or weed control at 121.5 g/ha in experiment [2] (setting [10]), in experiment [2] (setting [11]), in experiment [3] (setting [12]) and in experiment [3] (setting [13]) was over 80% each time.

In the case of `COc1ccnc(C(=O)N[C@@H](C)C(=O)O[C@@H](C)[C@@H](c2ccc(F)cc2C)C2CCCC2)c1OC(C)=O` [Compound 180], the pest or weed control at 25 ppm in experiment [1] (setting [4]) and in experiment [1] (setting [5]) was under 80% in each case. Also, the pest or weed control at 121.5 g/ha in experiment [2] (setting [10]) is over 80%; in experiment [2] (setting [11]), under 80%; in experiment [3] (setting [12]), under 80%; in experiment [3] (setting [13]) it was under 80%.

For `COc1cc[n+]([O-])c(C(=O)N[C@@H](C)C(=O)O[C@@H](C)[C@@H](c2ccc(C)cc2C)C(C)C)c1O` [Compound 211], the pest or weed control at 25 ppm is under 80% in experiment [1] (setting [4]) and under 0% in experiment [1] (setting [5]). For the same molecule, the pest or weed control at 100 ppm in experiment [2] (24 h, 1 Day Protectant, read-out: PUCCRT disease control, 1DP, HV activity) was under 80%; in experiment [2] (72 h, 3 Day Curative, read-out: PUCCRT disease control, 3DC, HV activity), under 0%; in experiment [3] (24 h, 1 Day Protectant, read-out: SEPTTR disease control, 1DP, HV activity), under 80%; in experiment [3] (72 h, 3 Day Curative, read-out: SEPTTR disease control, 3DC, HV activity), under 80%. For the same molecule, the pest or weed control at 121.5 g/ha in experiment [2] (setting [10]) was under 0%; in experiment [2] (setting [11]) it was under 0%; in experiment [3] (setting [12]) it was under 80%; in experiment [3] (setting [13]), under 0%.

As to `CCC(C)[C@H](c1ccc(C)cc1C)[C@H](C)OC(=O)[C@H](C)NC(=O)c1nccc(OC)c1OC(C)=O` (stereo partly shown) [Compound 203], the pest or weed control at 25 ppm in experiment [1] (setting [4]) is over 80%; in experiment [1] (setting [5]) it was under 0%. Also, the pest or weed control at 121.5 g/ha in experiment [2] (setting [10]), in experiment [2] (setting [11]), in experiment [3] (setting [12]) and in experiment [3] (setting [13]) was under 80% in each case.

Regarding `COc1ccnc(C(=O)N[C@@H](C)C(=O)O[C@@H](C)[C@@H](c2ccc(C)cc2C)C2CCCCC2)c1OC(C)=O` [Compound 202], the pest or weed control at 25 ppm in experiment [1] (setting [4]) is under 80%; in experiment [1] (setting [5]), under 0%. Besides, the pest or weed control at 121.5 g/ha in experiment [2] (setting [10]) is over 80%; in experiment [2] (setting [11]), under 0%; in experiment [3] (setting [12]), under 80%; in experiment [3] (setting [13]), under 80%.

For `COCCC(=O)Oc1c(OC)ccnc1C(=O)NCC(=O)O[C@@H](C)[C@H](c1ccc(F)cc1C)C(C)C` [Compound 350], the pest or weed control at 25 ppm in experiment [1] (setting [4]) and in experiment [1] (setting [5]) was over 80% throughout. For the same molecule, the pest or weed control at 121.5 g/ha in experiment [2] (setting [10]) was over 80%; in experiment [2] (setting [11]), over 80%; in experiment [3] (setting [12]), under 80%; in experiment [3] (setting [13]), under 80%.

On to `COc1cc(F)ccc1[C@@H](C1CCC1)[C@H](C)OC(=O)[C@H](C)NC(=O)c1nccc(OC)c1OC(C)=O` [Compound 226], for which the pest or weed control at 25 ppm is under 80% in experiment [1] (setting [4]) and under 0% in experiment [1] (setting [5]). Also, the pest or weed control at 121.5 g/ha in experiment [2] (setting [10]), in experiment [2] (setting [11]), in experiment [3] (setting [12]) and in experiment [3] (setting [13]) was under 80% throughout.

`COc1ccnc(C(=O)N[C@@H](C)C(=O)O[C@@H](C)[C@H](c2ccccc2F)C(C)C)c1OC(C)=O` [Compound 360]: the pest or weed control at 25 ppm in experiment [1] (setting [4]) and in experiment [1] (setting [5]) was over 80% throughout. Also, the pest or weed control at 121.5 g/ha is over 80% in experiment [2] (setting [10]), over 80% in experiment [2] (setting [11]), under 80% in experiment [3] (setting [12]) and over 80% in experiment [3] (setting [13]).

As to `COc1ccnc(C(=O)N[C@@H](C)C(=O)O[C@@H](C)[C@H](c2ccc(C)cc2F)C(C)C)c1OC(C)=O` [Compound 366], the pest or weed control at 25 ppm in experiment [1] (setting [4]) was over 80%; in experiment [1] (setting [5]), under 80%. Further, the pest or weed control at 121.5 g/ha in experiment [2] (setting [6]) was over 80%; in experiment [2] (setting [7]), over 80%; in experiment [3] (setting [8]), under 80%; in experiment [3] (setting [9]), under 80%.

Consider `COc1ccc([C@H](C(C)C)[C@H](C)OC(=O)[C@H](C)NC(=O)c2nccc(OC)c2OCOC(C)=O)cc1` [Compound 382], for which the pest or weed control at 25 ppm in experiment [1] (setting [4]) is over 80%; in experiment [1] (setting [5]), under 80%. Further, the pest or weed control at 121.5 g/ha in experiment [2] (setting [6]) is over 80%; in experiment [2] (setting [7]), over 80%; in experiment [3] (setting [8]) it was under 80%; in experiment [3] (setting [9]), over 80%.
